Values quoted from earlier work as cited in patent US12233147B2, “Method for treating keratin material” (Henkel AG & Co. KGaA, priority 2019, dated 2025).

Details: 25° C.

| SMILES | solubility in water |
| --- | --- |
| O=S(=O)([O-])c1ccc(N=Nc2c(O)ccc3ccccc23)cc1.[Na+] [Acid Orange 7, sodium salt of 4-[(2-hydroxy-1-naphthyl)azo]benzene sulphonate] | more than 7 g/L |
| Nc1cc(S(=O)(=O)[O-])cc2cc(S(=O)(=O)[O-])c(N=Nc3ccccc3)c(O)c12.[Na+].[Na+] [Acid Red 33, diantrium salt of 5-amino-4-hydroxy-3-(phenylazo)-naphthalene-2,7-disulphonate] | 2500 µg/mL |
| O=C([O-])c1c(Cl)c(Cl)c(Cl)c(Cl)c1-c1c2c(Br)cc(=O)c(Br)c-2oc2c(Br)c(O)cc(Br)c12.O=C([O-])c1c(Cl)c(Cl)c(Cl)c(Cl)c1-c1c2c(Br)cc(=O)c(Br)c-2oc2c(Br)c(O)cc(Br)c12.[Na+].[Na+] [Acid Red 92, disodium salt of 3,4,5,6-tetrachloro-2-(1,4,5,8-tetrabromo-6-hydroxy-3-oxoxanthen-9-yl)benzoic acid] | greater than 10 g/L |
| O=C([O-])C1=NN(c2ccc(S(=O)(=O)[O-])cc2)C(=O)C1N=Nc1ccc(S(=O)(=O)[O-])cc1.[Na+].[Na+].[Na+] (stereo not shown) [Acid Yellow 23, trisodium salt of 4,5-dihydro-5-oxo-1-(4-sulfophenyl)-4-((4-sulfophenyl)azo)-1H-pyrazole-3-carboxylic acid] | highly soluble in water |
